Reference: patent publication US8236750B2, “Composition comprising a pulmonary surfactant and a TNF-derived peptide” (Nycomed GmbH, priority 2004, dated 2012)

Tested on: Male Wistar rats
Assay: Arterial blood oxygenation after repeated saline lung lavage in rats
Assay type: in vivo, rat
Conditions: TIP 500 μg/animal alone, intratracheally, 1.2 mL in NaCl 0.9%; lung-lavaged rats; up to 150 min after administration
Experimental: Male Wistar rats were prepared as disclosed in Example 5. NaCl 0.9% (open circles), LUSUPULTIDE 12.5 mgPL/kg (filled squares), the circularized peptide […] (SEQ ID NO:3) (=TIP) 500 μg/animal (stars), or LUSUPULTIDE 12.5 mgPL/kg in combination with TIP 500 μg/animal (open squares) was administered intratracheally (administration volume 1.2 mL, solvent NaCl 0.9%). Arterial blood oxygenation (PaO2) was determined every 30 min up to 150 min after drug administration (t=210 min). […] Data are shown as mean ±SEM.*p<0.05, **p<0.01 versus LUSUPULTIDE 12.5 mgPL/kg
Male Wistar rats (230-280 g) were anaesthetized, catheterized to withdraw arterial blood, and ventilated with pure oxygen (=>PaO2˜500-550 mmHg). 30 min later lungs were ravaged 5-9 times with NaCl 0.9% (=>PaO2˜50-100 mmHg). After 60 min NaCl 0.9%, LUSUPULTIDE 12.5 mgPL/kg, TIP (500 μg/animal), or LUSUPULTIDE (12.5 mgPL/kg) in combination with TIP (500 μg/animal) was administered intratracheally (administration volume 1.2 mL, solvent NaCl 0.9%). Arterial blood oxygenation (PaO2) was determined every 30 min up to 150 min after drug administration (t=210 min).

CGQRETPEGAEAKPWYC [TIP] was tested, and the “Influence on arterial blood oxygenation (PaO2)” value was “no influence on oxygenation”.
